Where two headings read alike, the source gives them in different places.
Assays:
[1] = biological target: MRGPRX4-83S (Homo sapiens, UniProt Q96LA9, L83S); test: β-arrestin assay (CHO β-arrestin human MRGPRX4-83S); type: cell-based; design: host or cells: CHO β-arrestin cells; settings: for EC50: β-arrestin recruitment, CHO cells, MRGPRX4-83S, read-out: EC50 ± SEM; for Emax: efficacy based on 100 nM B-16 (set as 100%), read-out: Emax
Experimental: (§1) For β-arrestin recruitment assays, recombinant Chinese hamster ovary (CHO) cells expressing the human MRGPRX4 were used (DiscoverX/Eurofins) which allowed to measure β-galactosidase complementation upon β-arrestin recruitment. For calcium mobilization assays, recombinant astrocytes expressing MRGPX4-83L, or LN229 glioblastoma cells natively expressing the MRGPRX4-83S, were used.
(§2) The assays were performed as previously described for other rhodopsin-like GPCRs (Müller, C.E.; 8-Benzamidochromen-4-one-2-carboxylic acids: potent and selective agonists for the orphan G protein-coupled receptor GPR35. J. Med. Chem. 2013, 56:5182-97; Müller, C.E. Molecular Recognition of Agonists and Antagonists by the Nucleotide-Activated G Protein-Coupled P2Y2 Receptor. J. Med. Chem. 2017, 60:8425-8440).

[2] = biological target: T1, human MRGPRX4-83L (Homo sapiens, UniProt Q96LA9); test: Calcium assay (human MRGPRX4 83L), recombinant astrocytes; type: cell-based; settings: for EC50: calcium mobilization, MRGPRX4-83L, read-out: EC50 ± SEM; for Emax: efficacy based on maximal effect of 1 μM B-16 (set as 100%), read-out: Emax
T1 construct: host or cells: CHO β-arrestin cells
Experimental: as §1, §2

[3] = biological target: T1, human MRGPRX4-83L; test: β-arrestin assay (CHO β-arrestin ARMS1-ProLink 2 human MRGPRX4 83L); type: cell-based; settings: for IC50: inhibition of the effect of 2.6 μM B-16; for EC50: β-arrestin recruitment, CHO cells, MRGPRX4-83L, read-out: EC50 ± SEM; for Emax: efficacy based on maximal effect of 100 nM B-16 (set as 100%), read-out: Emax
Experimental: as §1, §2

[4] = Table 1, means of 3-4 experiments

T1 sequence (Q96LA9 whole entry): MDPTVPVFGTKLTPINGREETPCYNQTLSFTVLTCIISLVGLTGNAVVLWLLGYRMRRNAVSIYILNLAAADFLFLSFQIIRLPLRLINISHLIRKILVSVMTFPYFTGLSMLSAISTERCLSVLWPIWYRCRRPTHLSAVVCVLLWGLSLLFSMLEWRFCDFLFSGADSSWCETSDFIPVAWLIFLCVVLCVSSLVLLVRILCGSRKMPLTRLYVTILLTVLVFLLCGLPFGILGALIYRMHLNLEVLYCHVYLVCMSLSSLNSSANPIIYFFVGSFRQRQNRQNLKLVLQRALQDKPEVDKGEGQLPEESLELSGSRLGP
MRGPRX4-83S, sequence (Q96LA9 whole entry L83S): as the sequence (Q96LA9 whole entry) above, with L83S counted along it

SMILES	EC50 ([2]; Table 1) [nM]	EC50 [3, 4] [nM]	melting point [°C]	EC50 ([2]; Table 4) [nM]	Emax ([2]; Table 4) [%]	Emax ([3]; Table 4) [%]	EC50 ([3]; Table 4) [nM]	Emax ([2]; Table 1) [%]	also measured
CCn1c(=O)c2[nH]c(CCc3cccc(OC)c3)nc2n(CCCCS(=O)(=O)O)c1=O [E-2, 4-(1-Ethyl-8-(3-methoxyphenethyl)-2,6-dioxo-1,2,6,7-tetrahydro-3H-purin-3-yl)butane-1-sulfonic acid]	> 10000	> 10000	179 to 181						EC50 ([1]; Table 2): > 10000 nM; IC50 [2]: > 10000 nM; IC50 ([3]; Table 1): > 10000 nM
O=C(O)CCCCn1c(=O)n(CC2CCC2)c(=O)c2[nH]c(CCc3cccc(C(F)(F)F)c3)nc21 [G-2, 5-(1-(Cyclobutylmethyl)-2,6-dioxo-8-(3-(trifluoromethyl)phenethyl)-1,2,6,7-tetrahydro-3H-purin-3-yl)pentanoic acid]	> 10000	> 10000	210 to 212						EC50 ([1]; Table 2): > 10000 nM; IC50 [2]: > 10000 nM; IC50 ([3]; Table 1): > 10000 nM
C#CCn1c(=O)c2c(nc(CCc3ccccc3Br)n2CC)n(CCCCCP(=O)(O)O)c1=O [B-54, (5-(8-(2-Bromophenethyl)-7-ethyl-2,6-dioxo-1-(prop-2-yn-1-yl)-1,2,6,7-tetrahydro-3H-purin-3-yl)pentyl)phosphonic acid]			146 to 148	20.1 ± 4.1	103	96	534 ± 170		
C#CCn1c(=O)c2[nH]c(CCc3ccc(OC)c(OC)c3)nc2n(CCCCP(=O)(O)O)c1=O [B-11, (4-(8-(3,4-Dimethoxyphenethyl)-2,6-dioxo-1-(prop-2-yn-1-yl)-1,2,6,7-tetrahydro-3H-purin-3-yl)butyl)phosphonic acid]	28000 ± 3300	> 10000	254 to 256					100	IC50 [1]: 9720 ± 1050 nM; IC50 ([3]; Table 1): 50500 ± 1400 nM
C#CCn1c(=O)c2[nH]c(CCc3ccccc3F)nc2n(CCCCP(=O)(O)O)c1=O [B-24, (4-(8-(2-Fluorophenethyl)-2,6-dioxo-1-(prop-2-yn-1-yl)-1,2,6,7-tetrahydro-3H-purin-3-yl)butyl) phosphonic acid]			239 to 241	1420 ± 290	100	98	8190 ± 1810		
C#CCn1c(=O)c2[nH]c(CCc3ccccc3Br)nc2n(CCCCCCP(=O)(O)O)c1=O [B-55, (6-(8-(2-Bromophenethyl)-2,6-dioxo-1-(prop-2-yn-1-yl)-1,2,6,7-tetrahydro-3H-purin-3-yl)hexyl)phosphonic acid]			225 to 227	57.8 ± 18.9	94	98	857 ± 220		
C#CCn1c(=O)c2c(nc(CCc3ccccc3Br)n2CC)n(CCCCP(=O)(O)O)c1=O [B-19, (4-(8-(2-Bromophenethyl)-7-ethyl-2,6-dioxo-1-(prop-2-yn-1-yl)-1,2,6,7-tetrahydro-3H-purin-3-yl)butyl)phosphonic acid]	4.26 ± 0.56	25.9 ± 7.9	192 to 195					115	Emax ([3]; Table 1): 144%
C#CCn1c(=O)c2c(nc(CCc3ccccc3Br)n2CC)n(CCCCCCP(=O)(O)O)c1=O [B-57, (6-(8-(2-Bromophenethyl)-7-ethyl-2,6-dioxo-1-(prop-2-yn-1-yl)-1,2,6,7-tetrahydro-3H-purin-3-yl)hexyl)phosphonic acid]			223 to 225	474 ± 152	98	97	766 ± 357		
C#CCn1c(=O)c2c(nc(CCc3ccc(CC)cc3)n2CC2CCCC2)n(CCCCP(=O)(O)O)c1=O [B-42, (4-(7-(cyclopentylmethyl)-8-(4-ethylphenethyl)-2,6-dioxo-1-(prop-2-yn-1-yl)-1,2,6,7-tetrahydro-3H-purin-3-yl)butyl)phosphonic acid]			133 to 135						Emax ([1]; Table 3): 92%; EC50 ([1]; Table 3): 12.5 ± 1.3 nM
C#CCn1c(=O)c2[nH]c(CCc3ccc(-c4ccccc4)cc3)nc2n(CCCCP(=O)(O)O)c1=O [B-27, (4-(8-(2-([1,1′-Biphenyl]-4-yl)ethyl)-2,6-dioxo-1-(prop-2-yn-1-yl)-1,2,6,7-tetrahydro-3H-purin-3-yl)butyl)phosphonic acid]			212 to 214						Emax ([1]; Table 3): 68%; EC50 ([1]; Table 3): 36.7 ± 2.8 nM
C#CCn1c(=O)c2c(nc(CCc3ccccc3F)n2CC)n(CCCCP(=O)(O)O)c1=O [B-30, (4-(7-Ethyl-8-(2-fluorophenethyl)-2,6-dioxo-1-(prop-2-yn-1-yl)-1,2,6,7-tetrahydro-3H-purin-3-yl)butyl)phosphonic acid]			197 to 199	15.5 ± 12.5	97	96	262 ± 97		
C#CCn1c(=O)c2c(nc(CCc3ccccc3Br)n2CCO)n(CCCCP(=O)(O)O)c1=O [B-20, (4-(8-(2-Bromophenethyl)-7-(2-hydroxyethyl)-2,6-dioxo-1-(prop-2-yn-1-yl)-1,2,6,7-tetrahydro-3H-purin-3-yl)butyl)phosphonic acid]	1.86 ± 0.45	32.9 ± 7.5	157 to 160					103	Emax ([3]; Table 1): 124%
C#CCn1c(=O)c2c(nc(CCc3ccccc3Br)n2CCC)n(CCCCP(=O)(O)O)c1=O [B-22, (4-(8-(2-Bromophenethyl)-2,6-dioxo-1-(prop-2-yn-1-yl)-7-propyl-1,2,6,7-tetrahydro-3H-purin-3-yl)butyl)phosphonic acid]	17.8 ± 6.2	208 ± 49	178 to 181					119	Emax ([3]; Table 1): 176%
C#CCn1c(=O)c2c(nc(CCc3ccccc3Br)n2Cc2ccccc2)n(CCCCP(=O)(O)O)c1=O [B-23, (4-(7-Benzyl-8-(2-bromophenethyl)-2,6-dioxo-1-(prop-2-yn-1-yl)-1,2,6,7-tetrahydro-3H-purin-3-yl)butyl)phosphonic acid]	5.03 ± 1.59	59.9 ± 12.8	126 to 129					103	Emax ([3]; Table 1): 164%
C#CCn1c(=O)c2c(nc(CCc3ccccc3Br)n2CC2CCCC2)n(CCCCP(=O)(O)O)c1=O [B-37, (4-(8-(2-Bromophenethyl)-7-(cyclopentylmethyl)-2,6-dioxo-1-(prop-2-yn-1-yl)-1,2,6,7-tetrahydro-3H-purin-3-yl)butyl)phosphonic acid]			137 to 139	89.2 ± 25.5	84	87	169 ± 23		
C#CCn1c(=O)c2c(nc(CCc3ccccc3Br)n2C)n(CCCCCCP(=O)(O)O)c1=O [B-56, (6-(8-(2-Bromophenethyl)-7-methyl-2,6-dioxo-1-(prop-2-yn-1-yl)-1,2,6,7-tetrahydro-3H-purin-3-yl)hexyl)phosphonic acid]			221 to 223	57.8 ± 18.9	102	91	576 ± 83		
C#CCn1c(=O)c2c(nc(CCc3ccccc3Br)n2C)n(CCCCCP(=O)(O)O)c1=O [B-53, (5-(8-(2-Bromophenethyl)-7-methyl-2,6-dioxo-1-(prop-2-yn-1-yl)-1,2,6,7-tetrahydro-3H-purin-3-yl)pentyl)phosphonic acid]			110 to 112	15.5 ± 1	113	94	1070 ± 350		
C#CCn1c(=O)c2c(nc(CCc3ccc(Br)cc3)n2CC)n(CCCCP(=O)(O)O)c1=O [B-35, (4-(8-(4-Bromophenethyl)-7-ethyl-2,6-dioxo-1-(prop-2-yn-1-yl)-1,2,6,7-tetrahydro-3H-purin-3-yl)butyl)phosphonic acid]			169 to 171	306 ± 111	41	84	521 ± 142		
C#CCn1c(=O)c2c(nc(CCc3ccc(Br)cc3)n2C)n(CCCCP(=O)(O)O)c1=O [B-29, (4-(8-(4-Bromophenethyl)-7-methyl-2,6-dioxo-1-(prop-2-yn-1-yl)-1,2,6,7-tetrahydro-3H-purin-3-yl)butyl)phosphonic acid]			227 to 229	134 ± 13	45	100	2440 ± 750		
C#CCn1c(=O)c2c(nc(CCc3ccccc3Br)n2CC2CC2)n(CCCCP(=O)(O)O)c1=O [B-21, (4-(8-(2-Bromophenethyl)-7-(cyclopropylmethyl)-2,6-dioxo-1-(prop-2-yn-1-yl)-1,2,6,7-tetrahydro-3H-purin-3-yl)butyl)phosphonic acid]	2.02 ± 0.62	89.8 ± 20.9	181 to 184					109	Emax ([3]; Table 1): 163%
